Where “and” joins values, the source holds several entries; their conditions need not be identical. Equal values may be shown once.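 The concentration for 50% growth inhibition is given as GI50. At the TGI there is no net growth.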
Legend:
Assay in all cases: NCI tumour cell line growth inhibition, 384-well format
[1] = test system: 786-0 renal
[2] = test system: A498 renal
[3] = test system: A549 NSCLC
[4] = test system: ACHN renal
[5] = test system: BT-549 breast
[6] = test system: CAKI-1 renal
[7] = test system: COLO 205 colon
[8] = test system: DU-145 prostate
[9] = test system: EKVX NSCLC
[10] = test system: HCT-116 colon
[11] = test system: HCT-15 colon
[12] = test system: HL-60(TB) leukemia
[13] = test system: HOP-62 NSCLC
[14] = test system: HOP-92 NSCLC
[15] = test system: HS 578T breast
[16] = test system: HT29 colon
[17] = test system: IGROV1 ovarian
[18] = test system: K-562 leukemia
[19] = test system: KM12 colon
[20] = test system: M14 melanoma
[21] = test system: MALME-3M melanoma
[22] = test system: MCF7 breast
[23] = test system: MDA-MB-231 breast
[24] = test system: MDA-MB-435 melanoma
[25] = test system: MDA-MB-468 breast
[26] = test system: MOLT-4 leukemia
[27] = test system: NCI-H226 lung
[28] = test system: NCI-H23 lung
[29] = test system: NCI-H322M lung
[30] = test system: NCI-H460 NSCLC
[31] = test system: NCI-H522 lung
[32] = test system: OVCAR-3 ovarian
[33] = test system: OVCAR-4 ovarian
[34] = test system: OVCAR-5 ovarian
[35] = test system: OVCAR-8 ovarian
[36] = test system: PC-3 prostate
[37] = test system: RXF 393 renal
[38] = test system: SF-268 CNS
[39] = test system: SF-295 CNS
[40] = test system: SF-539 CNS
[41] = test system: SK-MEL-2 melanoma
[42] = test system: SK-MEL-28 melanoma
[43] = test system: SK-MEL-5 melanoma
[44] = test system: SK-OV-3 ovarian
[45] = test system: SN12C renal
[46] = test system: SNB-19 CNS
[47] = test system: SNB-75 CNS
[48] = test system: SR leukemia
[49] = test system: SW-620 colon
[50] = test system: T-47D breast
[51] = test system: TK-10 renal
[52] = test system: U251 glioblastoma
[53] = test system: UACC-257 melanoma
[54] = test system: UACC-62 melanoma
[55] = test system: UO-31 renal
[56] = test system: LOX IMVI melanoma
[57] = test system: NCI/ADR-RES ovarian
[58] = test system: RPMI-8226 leukemia

## Cc1cc(Oc2ccc3nc(COc4ccc(CC5SC(=O)NC5=O)cc4)n(C)c3c2)cc(C)c1N (stereo not drawn)
[1]
  GI50: 30.2 µM
  TGI: > 100 µM
[2]
  GI50: 25.7 µM
  TGI: 62.9 µM
[3]
  GI50: 24.8 µM
  TGI: 58.2 µM
[4]
  GI50: 31.3 µM
  TGI: 98.7 µM
[5]
  GI50: 16.4 µM
  TGI: 31.2 µM
[6]
  GI50: 29.5 µM
  TGI: 74.9 µM
[7]
  GI50: 33.7 µM
  TGI: 82.7 µM
[8]
  GI50: 19 µM
  TGI: 36 µM
[9]
  GI50: 22.6 µM
  TGI: 44.2 µM
[10]
  GI50: 15.4 µM
  TGI: 30.6 µM
[11]
  GI50: 21.7 µM
  TGI: 43 µM
[12]
  GI50: 14 µM
  TGI: 27.2 µM
[13]
  GI50: 14.6 µM
  TGI: 35 µM
[14]
  GI50: 23.9 µM
  TGI: 60.6 µM
[15]
  GI50: 18.6 µM
  TGI: 42.6 µM
[16]
  GI50: 27.2 µM
  TGI: 73.1 µM
[17]
  GI50: 29.6 µM
  TGI: 79.5 µM
[18]
  GI50: 18.8 µM
  TGI: 49.1 µM
[19]
  GI50: 17.2 µM
  TGI: 31.8 µM
[20]
  GI50: 19.9 µM
  TGI: 39.9 µM
[21]
  GI50: 20.7 µM
  TGI: 39.3 µM
[22]
  GI50: 5.45 µM
  TGI: 22 µM
[23]
  GI50: 30.4 µM
  TGI: > 100 µM
[24]
  GI50: 20 µM
  TGI: 43.9 µM
[25]
  GI50: 16.7 µM
  TGI: 36.2 µM
[26]
  GI50: 14 µM
  TGI: 27.1 µM
[27]
  GI50: 22.6 µM
  TGI: 46.7 µM
[28]
  GI50: 15.6 µM
  TGI: 29.5 µM
[29]
  GI50: 32.8 µM
  TGI: 77.4 µM
[30]
  GI50: 15.9 µM
  TGI: 31.9 µM
[31]
  GI50: 20.4 µM
  TGI: 41.4 µM
[32]
  GI50: 19.1 µM
  TGI: 35.8 µM
[33]
  GI50: 29.4 µM
  TGI: 75.2 µM
[34]
  GI50: 38.2 µM
  TGI: > 100 µM
[35]
  GI50: 22.4 µM
  TGI: 53.7 µM
[36]
  GI50: 17.3 µM
  TGI: 35.4 µM
[37]
  GI50: 16.8 µM
  TGI: 48.4 µM
[38]
  GI50: 23.9 µM
  TGI: 57.7 µM
[39]
  GI50: 26.3 µM
  TGI: 66.4 µM
[40]
  GI50: 17.5 µM
  TGI: 33.9 µM
[41]
  GI50: 20.3 µM
  TGI: 35.6 µM
[42]
  GI50: 23 µM
  TGI: 50.7 µM
[43]
  GI50: 18.8 µM
  TGI: 32.9 µM
[44]
  GI50: 25.8 µM
  TGI: 66.4 µM
[45]
  GI50: 28.7 µM
  TGI: > 100 µM
[46]
  GI50: 42 µM
  TGI: > 100 µM
[47]
  GI50: 22 µM
  TGI: 50 µM
[48]
  GI50: 6.93 µM
  TGI: 19.4 µM
[49]
  GI50: 25.6 µM
  TGI: 68.8 µM
[50]
  GI50: 16.9 µM
  TGI: 31.1 µM
[51]
  GI50: 27.4 µM
  TGI: 80.5 µM
[52]
  GI50: 21 µM
  TGI: 45.1 µM
[53]
  GI50: 24.5 µM
  TGI: 48.6 µM
[54]
  GI50: 17.7 µM
  TGI: 31.9 µM
[55]
  GI50: 24.1 µM
  TGI: 56.9 µM

## CCc1cc2c(cc1N1CCC(N3CCOCC3)CC1)C(C)(C)c1[nH]c3cc(C#N)ccc3c1C2=O
[4]
  GI50: 5.04 µM and 1.42 µM
  TGI: 12.3 µM and 3.12 µM
[5]
  GI50: 4.75 µM and 0.496 µM
  TGI: 9 µM and 1.62 µM
[6]
  GI50: 5.87 µM and 2.17 µM
  TGI: 14.2 µM and 5.76 µM
[7]
  GI50: 7.03 µM and 1.16 µM
[8]
  GI50: 1.63 µM and 0.992 µM
  TGI: 6.57 µM and 2.37 µM
[9]
  GI50: 4.67 µM and 1.37 µM
  TGI: 11.4 µM and 2.98 µM
[10]
  GI50: 5.79 µM and 1.47 µM
  TGI: 11.5 µM and 3.08 µM
[11]
  TGI: 8.23 µM and 1.45 µM
[12]
  GI50: 6.14 µM and 0.686 µM
  TGI: 10.9 µM and 1.9 µM
[14]
  GI50: 5.13 µM and 0.841 µM
  TGI: 11.3 µM and 2.62 µM
[15]
  TGI: 8.55 µM and 1.21 µM
[18]
  GI50: 0.633 µM
  TGI: 5.17 µM
[19]
  TGI: 6.7 µM and 1.47 µM
[56]
  GI50: 4.67 µM and 1.17 µM
  TGI: 9.04 µM and 2.67 µM
[20]
  GI50: 5.43 µM and 0.726 µM
  TGI: 13.3 µM and 4.3 µM
[21]
  GI50: 2.11 µM and 0.839 µM
  TGI: 5.69 µM and 2.24 µM
[22]
  TGI: 8.58 µM and 2.05 µM
[23]
  GI50: 1.11 µM and 1.26 µM
  TGI: 2.73 µM and 3.32 µM
[25]
  GI50: 2.56 µM and 0.567 µM
  TGI: 6.54 µM and 1.71 µM
[26]
  GI50: 1.92 µM and 0.302 µM
  TGI: 7.47 µM and 1.5 µM
[27]
  GI50: 3.1 µM
  TGI: 8.34 µM and 2.64 µM
[28]
  GI50: 4.88 µM and 1.47 µM
  TGI: 13.1 µM and 10.9 µM
[29]
  TGI: 29.4 µM and 3.81 µM
[31]
  GI50: 2.92 µM and 1.15 µM
  TGI: 8.64 µM and 2.58 µM
[57]
  GI50: 0.666 µM and 1.54 µM
  TGI: 2.96 µM and 4.51 µM
[33]
  GI50: 1.19 µM and 0.437 µM
  TGI: 2.46 µM and 1.5 µM
[34]
  GI50: 5.33 µM and 1.21 µM
[35]
  GI50: 4.12 µM and 1.11 µM
  TGI: 8.68 µM and 2.36 µM
[58]
  GI50: 1.74 µM and 0.399 µM
  TGI: 4.44 µM and 1.85 µM
[37]
  GI50: 2.45 µM and 0.547 µM
  TGI: 7.13 µM and 1.88 µM
[39]
  TGI: 11.3 µM and 2.17 µM
[42]
  GI50: 17.5 µM and 1.8 µM
  TGI: 31.3 µM and 3.56 µM
[43]
  TGI: 8.31 µM and 1.6 µM
[44]
  GI50: 11 µM and 1.15 µM
[47]
  TGI: 10.6 µM and 1.07 µM
[48]
  TGI: 0.686 µM
[49]
  GI50: 5.07 µM and 0.686 µM
[51]
  GI50: 11.4 µM and 1.45 µM
  TGI: 26.6 µM and 3.09 µM
